Our source for the EC50 values is US10472341B2, “Bicyclic tetrahydrothiazepine derivatives useful for the treatment of neoplastic and/or infectious diseases” (APEIRON BIOLOGICS AG, priority 2015, dated 2019).

Structures can show the parent of a compound that is named as a salt. Where two headings read alike, the source gives them in different places.

Format in all cases: cell-based
The test system of assay [1] is aCD3/aCD28-stimulated human PBMCs. The assay can be described thus: Cytokine production in aCD3/aCD28 stimulated human PBMCs. Conditions: PBMC, 18 h. In outline: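 Compound effects measured in buffy-coat PBMCs activated 18 h at 37° C by 1 μg/mL each of soluble anti-CD3 (OKT3) and anti-CD28 (28.2), 1e6 cells/mL. Cytokines in harvested supernatants read by MSD or HTRF.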

In assay [2] the test system is CD4 T cells. The assay can be described thus: CD69 expression on aCD3/aCD28 stimulated isolated human CD4 T cells (flow cytometry). Conditions: 24 h after TCR stimulation, read-out: Activity Class CD69 (CD4). The procedure:
(§1) Isolated T cells were plated in Xvivo medium at 1.5*10 ^5 cells per in 96 well culture plates and TCR-stimulated with anti-CD3/28 mAbs in the presence of compound as indicated. Cytokine production was determined at 24 h or 48 h following TCR stimulation in cell culture supernatants using commercially available ELISA kits (BD and eBioscience) as recommended by the manufacturer. T cell proliferation and CD25 expression (CD25-PC5 reagent purchased from Beckman Coulter) was determined by flow cytometry (Beckman-Coulter FC500) and analysed with Kaluza Software. For measurement of CD69 expression, isolated CD4 and CD8 T cells were plated in Xvivo medium at […] per in 96 well culture plates and TCR-stimulated with anti-CD3/28 mAbs in the presence of compound. CD69 expression was determined at 24 h following TCR stimulation by flow cytometry (CD4eF450, CD8APCeF780 and CD69-PC7 reagent purchased from eBioscience) and analysed with Kaluza Software.
(§2) For measurement of CD69 expression, isolated CD4 and CD8 T cells were plated in Xvivo medium at 80000 cells per in 96 well culture plates and TCR-stimulated with anti-CD3/28 mAbs in the presence of compound. CD69 expression was determined at 24 h following TCR stimulation by flow cytometry (CD4eF450, CD8APCeF780 and CD69-PC7 reagent purchased from eBioscience) and analysed with Kaluza Software.
For orientation: A flow cytometer gives signals particle by particle.

For assay [3], the system named is CD8 T cells. In words: CD69 expression on aCD3/aCD28 stimulated isolated human CD8 T cells (flow cytometry). Conditions: T-cell, 24 h after TCR stimulation, read-out: Activity Class CD69 (CD8). How it is done:
as §1, §2

[4] abbreviates: enhancement of IFN-γ production, read-out: Activity Class IFN-γ.
Setting [5] is: enhancement of IL-2 production, read-out: Activity Class IL-2.

In the case of `N[C@H]1CS(=O)(=O)c2cc(F)c(C(=O)NCCC3CCOCC3)cc2N(Cc2ccc(Cl)cc2)C1=O` [Example 135, (3R)-3-amino-5-[(4-chlorophenyl)methyl]-8-fluoro-N-[2-(oxan-4-yl)ethyl]-1,1,4-trioxo-2,3,4,5-tetrahydro-1λ^6,5-benzothiazepine-7-carboxamide hydrochloride], the EC50 in assay [1] (setting [4]) was less than 1.58 µM; in assay [1] (setting [5]), 1.58 to 5.01 µM; in assay [2], 1.58 to 5.01 µM; in assay [3], 1.58 to 5.01 µM.

In the case of `COc1ccc(CN2C(=O)[C@@H](N)CS(=O)(=O)c3ccc(C(=O)NCCCC(F)(F)F)cc32)cc1` [Example 150, (3R)-3-amino-5-[(4-methoxyphenyl)methyl]-1,1,4-trioxo-N-(4,4,4-trifluorobutyl)-2,3,4,5-tetrahydro-1λ^6,5-benzothiazepine-7-carboxamide], the EC50 in assay [1] (setting [4]) was 1.58 to 5.01 µM; in assay [1] (setting [5]) it was 1.58 to 5.01 µM; in assay [2], more than 5.01 µM; in assay [3] it was more than 5.01 µM.

Regarding `N[C@H]1CS(=O)(=O)c2ccc(C(=O)N[C@@H]3CC3(F)F)cc2N(Cc2ccc(C(F)(F)F)cc2)C1=O` [Example 179, (3R)-3-amino-N-[(1R)-2,2-difluorocyclopropyl]-1,1,4-trioxo-5-{[4-(trifluoromethyl)phenyl]methyl}-2,3,4,5-tetrahydro-1λ^6,5-benzothiazepine-7-carboxamide], the EC50 in assay [1] (setting [4]) is 1.58 to 5.01 µM; in assay [1] (setting [5]) it was less than 1.58 µM; in assay [2], less than 1.58 µM; in assay [3] it was less than 1.58 µM.

As to `CCCCNC(=O)c1cc2c(cc1F)S(=O)(=O)C[C@H](N)C(=O)N2Cc1ccc(F)cc1` [Example 133, (3R)-3-amino-N-butyl-8-fluoro-5-[(4-fluorophenyl)methyl]-1,1,4-trioxo-2,3,4,5-tetrahydro-1λ^6,5-benzothiazepine-7-carboxamide hydrochloride], the EC50 in assay [1] (setting [4]) was less than 1.58 µM; in assay [1] (setting [5]) it was 1.58 to 5.01 µM; in assay [2], less than 1.58 µM; in assay [3] it was less than 1.58 µM.

Turning to `N[C@H]1CS(=O)(=O)c2cc(F)c(C(=O)N[C@H]3CCC(F)(F)C3)cc2N(Cc2ccc(Cl)cc2)C1=O` [Example 146, (3R)-3-amino-5-[(4-chlorophenyl)methyl]-N-[(1S)-3,3-difluorocyclopentyl]-8-fluoro-1,1,4-trioxo-2,3,4,5-tetrahydro-1λ^6,5-benzothiazepine-7-carboxamide], the EC50 in assay [1] (setting [4]) is less than 1.58 µM; in assay [1] (setting [5]), less than 1.58 µM; in assay [2] it was 1.58 to 5.01 µM; in assay [3] it was 1.58 to 5.01 µM.

Regarding `N[C@H]1C[S@@+]([O-])c2cc(F)c(C(=O)NCCCC(F)(F)F)cc2N(Cc2ccc(Cl)cc2)C1=O` (single isomer, unassigned) [Example 123, hydrochloride], the EC50 in assay [1] (setting [4]) was less than 1.58 µM; in assay [1] (setting [5]) it was 1.58 to 5.01 µM; in assay [2], more than 5.01 µM; in assay [3], more than 5.01 µM.

Regarding `Cl.N[C@H]1CS(=O)(=O)c2cc(F)c(C(=O)N[C@@H]3CC3(F)F)cc2N(Cc2ccc(Cl)cc2)C1=O` (single isomer, unassigned) [Example 106, hydrochloride], the EC50 in assay [1] (setting [4]), in assay [1] (setting [5]), in assay [2] and in assay [3] was 1.58 to 5.01 µM each time.

`N[C@H]1CS(=O)(=O)c2ccc(C(=O)NC3CC(F)(F)C3)cc2N(Cc2ccc(Cl)cc2)C1=O` [Example 145, (3R)-3-amino-5-[(4-chlorophenyl)methyl]-N-(3,3-difluorocyclobutyl)-1,1,4-trioxo-2,3,4,5-tetrahydro-1λ^6,5-benzothiazepine-7-carboxamide]: the EC50 in assay [1] (setting [4]) is 1.58 to 5.01 µM; in assay [1] (setting [5]), 1.58 to 5.01 µM; in assay [2], less than 1.58 µM; in assay [3] it was less than 1.58 µM.

Turning to `COc1ccc(CN2C(=O)[C@@H](N)CS(=O)(=O)c3cc(F)c(C(=O)NC4CC4(F)F)cc32)cc1` (stereo partly drawn) [Example 143, (3R)-3-amino-N-(2,2-difluorocyclopropyl)-8-fluoro-5-[(4-methoxyphenyl)methyl]-1,1,4-trioxo-2,3,4,5-tetrahydro-1λ^6,5-benzothiazepine-7-carboxamide], the EC50 in assay [1] (setting [4]) was 1.58 to 5.01 µM; in assay [1] (setting [5]) it was 1.58 to 5.01 µM; in assay [2], 1.58 to 5.01 µM; in assay [3], more than 5.01 µM.

Consider `N[C@H]1CS(=O)(=O)c2cc(F)c(C(=O)NC3CC3C(F)(F)F)cc2N(Cc2ccc(Cl)cc2)C1=O` (stereo partly drawn) [Example 127, (3R)-3-amino-5-[(4-chlorophenyl)methyl]-8-fluoro-1,1,4-trioxo-N-[2-(trifluoromethyl)cyclopropyl]-2,3,4,5-tetrahydro-1λ^6,5-benzothiazepine-7-carboxamide hydrochloride], for which the EC50 in assay [1] (setting [4]) was less than 1.58 µM; in assay [1] (setting [5]), 1.58 to 5.01 µM; in assay [2] it was less than 1.58 µM; in assay [3], less than 1.58 µM.

For the molecule `N[C@H]1CS(=O)(=O)c2cc(F)c(C(=O)NCCCC(F)(F)F)cc2N(Cc2ccc(F)cc2)C1=O` [Example 129, (3R)-3-amino-8-fluoro-5-[(4-fluorophenyl)methyl]-1,1,4-trioxo-N-(4,4,4-trifluorobutyl)-2,3,4,5-tetrahydro-1λ^6,5-benzothiazepine-7-carboxamide hydrochloride], the EC50 was less than 1.58 µM in assay [1] (setting [4]), 1.58 to 5.01 µM in assay [1] (setting [5]), less than 1.58 µM in assay [2] and less than 1.58 µM in assay [3].

On to `N#Cc1ccc(CN2C(=O)[C@@H](N)CS(=O)(=O)c3cc(F)c(C(=O)NC4CC4(F)F)cc32)cc1` (stereo partly drawn) [Example 124, (3R)-3-amino-5-[(4-cyanophenyl)methyl]-N-(2,2-difluorocyclopropyl)-8-fluoro-1,1,4-trioxo-2,3,4,5-tetrahydro-1λ^6,5-benzothiazepine-7-carboxamide hydrochloride], for which the EC50 in assay [1] (setting [4]) was 1.58 to 5.01 µM; in assay [1] (setting [5]), more than 5.01 µM; in assay [2], more than 5.01 µM; in assay [3], more than 5.01 µM.

On to `N#Cc1ccc(CN2C(=O)[C@@H](N)CS(=O)(=O)c3cc(F)c(C(=O)NCCCC(F)(F)F)cc32)cc1` [Example 125, (3R)-3-amino-5-[(4-cyanophenyl)methyl]-8-fluoro-1,1,4-trioxo-N-(4,4,4-trifluorobutyl)-2,3,4,5-tetrahydro-1λ^6,5-benzothiazepine-7-carboxamide hydrochloride], for which the EC50 was less than 1.58 µM in assay [1] (setting [4]), 1.58 to 5.01 µM in assay [1] (setting [5]), 1.58 to 5.01 µM in assay [2] and 1.58 to 5.01 µM in assay [3].

`COc1ccc(CNC(=O)c2cc3c(cc2F)S(=O)(=O)C[C@H](N)C(=O)N3Cc2ccc(Cl)cc2)cc1` [Example 137, (3R)-3-amino-5-[(4-chlorophenyl)methyl]-8-fluoro-N-[(4-methoxyphenyl)methyl]-1,1,4-trioxo-2,3,4,5-tetrahydro-1λ^6,5-benzothiazepine-7-carboxamide hydrochloride]: the EC50 in assay [1] (setting [4]), in assay [1] (setting [5]), in assay [2] and in assay [3] was less than 1.58 µM in each case.

Turning to `N[C@H]1CS(=O)(=O)c2ccc(C(=O)NCC3CC(F)(F)C3)cc2N(Cc2ccc(Cl)cc2)C1=O` [Example 171, (3R)-3-amino-5-[(4-chlorophenyl)methyl]-N-[(3,3-difluorocyclobutyl)methyl]-1,1,4-trioxo-2,3,4,5-tetrahydro-1λ^6,5-benzothiazepine-7-carboxamide], the EC50 in assay [1] (setting [4]) was 1.58 to 5.01 µM; in assay [1] (setting [5]), less than 1.58 µM; in assay [2], less than 1.58 µM; in assay [3] it was less than 1.58 µM.

For the molecule `N[C@H]1CS(=O)(=O)c2cc(F)c(C(=O)NCCCC(F)(F)F)cc2N(Cc2ccccc2)C1=O` [Example 136, (3R)-3-amino-5-benzyl-8-fluoro-1,1,4-trioxo-N-(4,4,4-trifluorobutyl)-2,3,4,5-tetrahydro-1λ^6,5-benzothiazepine-7-carboxamide hydrochloride], the EC50 in assay [1] (setting [4]), in assay [1] (setting [5]), in assay [2] and in assay [3] was less than 1.58 µM each time.

As for `N[C@H]1CS(=O)(=O)c2cc(Cl)c(C(=O)NCCCC(F)(F)F)cc2N(Cc2ccc(Cl)cc2)C1=O` [Example 163, (3R)-3-amino-8-chloro-5-[(4-chlorophenyl)methyl]-1,1,4-trioxo-N-(4,4,4-trifluorobutyl)-2,3,4,5-tetrahydro-1λ^6,5-benzothiazepine-7-carboxamide], the EC50 in assay [1] (setting [4]) was less than 1.58 µM; in assay [1] (setting [5]), 1.58 to 5.01 µM; in assay [2], less than 1.58 µM; in assay [3] it was less than 1.58 µM.

In the case of `N[C@H]1CSc2cc(F)c(C(=O)NCc3ccccc3)cc2N(Cc2ccc(F)cc2)C1=O` [Example 132, (3R)-3-amino-N-benzyl-8-fluoro-5-[(4-fluorophenyl)methyl]-4-oxo-2,3,4,5-tetrahydro-1,5-benzothiazepine-7-carboxamide hydrochloride], the EC50 was 1.58 to 5.01 µM in assay [1] (setting [4]), more than 5.01 µM in assay [1] (setting [5]), more than 5.01 µM in assay [2] and more than 5.01 µM in assay [3].
